Legend:
[1] = system: Estradiol-17-β and progesterone; experiment: Hormonal analyses of serum samples (estradiol assay/DPC, Coat-A-Count Progesterone/DPC) in the trial; assay type: in vivo; conditions: six beagle bitches, 3 mg/dog/day for 21 days
Procedure: (§1) A medical trial was conducted at University of Kuopio with six (6) beagle bitches the average weight of which was 10 kg and the age ranged from 1 year and 1 month to 3 years and 11 months. The dogs were given finrozole at a dose of 3 mg/dog/day from the first day of oestrus signs for 21 days. The development of oestrus signs were followed daily and serum samples collected twice a week. The sexual behaviour of a fertile male and the bitches was recorded. The male was allowed to mount and mate the bitches.
Hormonal analyses were carried out at Swedish University of Agricultural Sciences in the Department of Clinical Chemistry Estradiol-17-β (the modified estradiol assay/DPC) and progesterone (Coat-A-Count Progesterone /DPC) were analysed.

[2] = system: beagle bitches; experiment: Medical trial of oestrus suppression in beagle bitches (oestrus signs, mating behaviour, vaginal cytology, side effects); assay type: in vivo
Procedure: as §1

[3] = six beagle bitches, 3 mg/dog/day for 21 days

SMILES: N#Cc1ccc(C(C(O)Cc2ccc(F)cc2)n2cncn2)cc1 (single isomer, unassigned) [finrozole, 1-[1-(4-cyanophenyl)-3-(4-fluorophenyl)-2-hydroxypropyl]-1,2,4-triazole, diasteroisomer a + d]
- time after starting the treatment during which serum estrogen levels decreased [1]: 4 to 13 days
- Progesterone levels ([1]; serum): increased in five bitches of six
- serum estrogen levels ([1]; serum samples twice a week): decreased in all bitches
- bitches mated (oestrus continued) ([2]; of the four bitches in which oestrus continued, fertile male allowed to mount and mate, 3 mg/dog/day for 21 days): Three of them were mated
- bitches conceived ([2]; of the three mated bitches, 3 mg/dog/day for 21 days): two conceived
- oestrus signs according to vaginal cytology [2, 3]: no difference could be detected
- side effects during the treatment [2, 3]: No side effects were seen
- Oestrus signs ([2]; six beagle bitches, 3 mg/dog/day from the first day of oestrus signs for 21 days): disappeared in two bitches of six
